Tested on: MGC803 (human gastric cancer cells)
Test: Tumor cell proliferation inhibition test, CCK-8 method (Example 21)
Type: cell-based
Conditions: Homo sapiens, MGC-803; CCK-8, 72 h, Table 3; read-out: IC50 MGC803
Description: A part of the compounds prepared in the examples of the present disclosure were subjected to a tumor cell proliferation inhibition test by using a CCK-8 method. Cell lines HCT116 (human colon cancer cells), MGC803 (human gastric cancer cells), and MIA PACA-2 (human pancreatic cancer cells) were purchased from Shanghai Meixuan Technology Co., Ltd. Samples (a part of the compounds prepared in the examples) were dissolved in DMSO (Merck), prepared into a concentration of 10 mM, and finally triply diluted in DMEM or McCoy's 5A 1640 medium to 8 concentration gradients. A cell culture solution was collected when a cell culture met a test requirement, 10 μL of the cell culture solution was uniformly coated on a cell counting plate, cells were counted for 3 times under a microscope, and a cell density was calculated by taking an average value; and a 96-well plate (Corning, #3599) was taken, 200 μL of the cell culture solution was added into each well for cell inoculation at a cell concentration of 6×10^3 cells per well, and the inoculated 96-well plate was incubated in a cell incubator containing 5% CO2 at 37° C. for 24 h. An old culture medium was removed by suction, 200 μL of the triply diluted sample DMEM or McCoy's 5A 1640 medium at an initial concentration of 10 μmol/L was added to each well, the DMSO content was controlled to be 1%, three duplicate wells were set, PBS was used as a blank control, and the plate was incubated in the incubator for 72 h. The original DMEM or McCoy's 5A 1640 medium in the 96-well plate and a PBS buffer in a final row were sucked out, a prepared CCK-8 solution (90% DMEM or McCoy's 5A 1640 medium+10% CCK-8) was added, the mixture was incubated in an incubator, and an absorbance was read by using a Biotek microplate reader. Cell growth inhibition rate IC %=(blank control well OD value−administration well OD value)/blank control well OD value×100%.

COc1cc(C(=O)O)ccc1NC(=O)[C@@H]1N[C@@H](CC(C)(C)C)[C@](C#N)(c2ccc(Cl)cc2F)[C@H]1c1cccc(Cl)c1F [Idasanutlin, reference compound]
IC50: 1090 nM

— patent publication US20240024494A1, “SMALL-MOLECULE CONJUGATE AND USE THEREOF” (SHANGHAI MEWSGEN BIOTECHNOLOGY CO., LTD, priority 2020, published 2024)
